The values that follow are results of earlier work, collected in patent US20240000793A1, “OPHTHALMIC COMPOSITION CONTAINING LEVOFLOXACIN AND KETOROLAC, METHOD FOR THE PREPARATION AND USE THEREOF” (NTC S.R.L., priority 2020, published 2024).

For series [1] the following is noted: versus pH.
For series [2] the following is noted: recent studies.

Take `O=C(c1ccccc1)c1ccc2n1CCC2C(=O)O` (centres unmarked) [Ketorolac tromethamine]: in series [1], the Solubility profile result is reported as “pH dependent trend, significantly increasing at pH value>6.0”.
`C[C@H]1COc2c(N3CCN(C)CC3)c(F)cc3c(=O)c(C(=O)O)cn1c23` [Levofloxacin]: in series [2], the “Time in the eye at levels above the minimum inhibitory concentration (MIC)” value was “more than six hours”.
